Experimental data taken from patent EP0428132A1, “Pradimicin derivatives” (Bristol-Myers Squibb Company, priority 1989, dated 1991).
Values after ≈ are worked out from the molar mass of the structure shown. Counter-ions that a name gives are not always drawn. Like-named read-outs stand apart in the source and are kept apart here. Marks after values point to notes of the source that are not given here.

Key:
Candida albicans A25578 = assay: In vitro antifungal activity, serial agar dilution method (Table 1a); assay type: cell-based
Description: (§1) The inoculum size was adjusted to 10⁶ cells/ml, and a volume of approximately 0.003 ml of fungal suspension was applied to the surface of the antibiotic containing agar plates with a multiinoculator. After incubation, the lowest concentration of antibiotic causing virtually complete inhibition of fungal growth was determined as the minimum inhibitory concentration (MIC).

Candida albicans A9540 [1] = assay: as above; assay type: cell-based
Description: as §1

[2] = tested on: Candida paratropicalis A25825; assay: as above; assay type: cell-based
Description: as §1

[3] = tested on: Candida pseudotropicalis A25802; assay: as above; assay type: cell-based; conditions: Kluyveromyces marxianus, YM agar (pH 7.0, Difco), 30°C for 2 days (yeast) or 4 days (filamentous fungi), read-out: MICs, Candida pseudotropicalis A25802
Description: as §1

[4] = tested on: Candida tropicalis A25809; assay: as above; assay type: cell-based; conditions: YM agar (pH 7.0, Difco), 30°C for 2 days (yeast) or 4 days (filamentous fungi), read-out: MICs, Candida tropicalis A25809
Description: as §1

[5] = tested on: Candida tropicalis A25812; assay: as above; assay type: cell-based
Description: as §1

[6] = tested on: Cryptococcus neoformans A15053; assay: as above; assay type: cell-based
Description: as §1

[7] = tested on: Microsporum canis WW10218; assay: as above; assay type: cell-based; conditions: WW10218, pH 7, read-out: MICs, Microsporum canis WW10218
Description: as §1

[8] = tested on: Microsporum gypseum WW1107; assay: as above; assay type: cell-based; conditions: Nannizzia gypsea, YM agar (pH 7.0, Difco), 30°C for 2 days (yeast) or 4 days (filamentous fungi), read-out: MICs, Microsporum gypseum WW1107
Description: as §1

[9] = tested on: Saccharomyces cerevisiae A25803; assay: as above; assay type: cell-based; conditions: YM agar (pH 7.0, Difco), 30°C for 2 days (yeast) or 4 days (filamentous fungi), read-out: MICs, Saccharomyces cerevisiae A25803
Description: as §1

[10] = tested on: Trichophyton mentagrophytes A26771; assay: as above; assay type: cell-based
Description: as §1

[11] = tested on: Trichophyton rubrum A26761; assay: as above; assay type: cell-based; conditions: A26761, pH 7, read-out: MICs, Trichophyton rubrum A26761
Description: as §1

Candida albicans A9540 [12] = assay: Intravenous Candida albicans infection mouse model, Table 2 part B; assay type: in vivo, mice
Description: Several compounds were also evaluated in an intravenous Candida albicans […] infection mouse model. The test organism was suspended in saline approximately 10 times the median lethal dose of the fungus (10⁶ cells/mouse) were used to infect intravenously male ICR mice weighing 20 to 24 g. Groups of five mice at each dose level were given the test compounds intravenously or intramuscularly. The 50% protective dose (PD₅₀) was calculated from survival rates recorded 20 or 21 days after the fungal challenge. […]

[13] = Water solubility, protocol I (PBS, HPLC); assay type: physicochemical; conditions: Method I: PBS without CaCl₂ and MgCl₂.6H₂O
Description: The supernatant (2 µL) was analyzed by HPLC using the conditions specified for each compound in the Experimental Section. […] When not soluble, an additional amount of PBS (x µL) was added, sonicated, and centrifuged. When visibly soluble, the solution (2 µL) was injected to HPLC and the peak area was used for the known concentration of the sample.

M. gypseum A22810 = assay: In vitro antifungal activity, serial agar dilution method (Table 1a, footnote strain 1); assay type: cell-based, Microsporum gypseum; conditions: Nannizzia gypsea, strain per footnote **1, YM agar (pH 7.0, Difco), 30°C for 2 days (yeast) or 4 days (filamentous fungi), read-out: MICs, M. gypseum A22810
Description: as §1

T. rubrum A24195 = assay: In vitro antifungal activity, serial agar dilution method (Table 1a, footnote strain 2); assay type: cell-based; conditions: Trichophyton rubrum, A24195, pH 7, read-out: MICs, T. rubrum A24195
Description: as §1

T. mentagrophytes A22838 = assay: In vitro antifungal activity, serial agar dilution method (Table 1a, footnote strain 3); assay type: cell-based; conditions: Trichophyton mentagrophytes, strain per footnote **3, YM agar (pH 7.0, Difco), 30°C for 2 days (yeast) or 4 days (filamentous fungi), read-out: MICs, T. mentagrophytes A22838
Description: as §1

M. gypseum A26835 = assay: In vitro antifungal activity, serial agar dilution method (Table 1a, footnote strain 4); assay type: cell-based, Microsporum gypseum; conditions: Nannizzia gypsea, A26835, pH 7, read-out: MICs, M. gypseum A26835
Description: as §1

M. canis A26834 = assay: In vitro antifungal activity, serial agar dilution method (Table 1a, footnote strain 5); assay type: cell-based; conditions: Microsporum canis, A26834, pH 7, read-out: MICs, M. canis A26834
Description: as §1

[14] = A25578, YM agar (pH 7.0, Difco), 30°C for 2 days (yeast) or 4 days (filamentous fungi), read-out: MICs, Candida albicans A25578
[15] = A9540, YM agar (pH 7.0, Difco), 30°C for 2 days (yeast) or 4 days (filamentous fungi), read-out: MICs, Candida albicans A9540
[16] = YM agar (pH 7.0, Difco), 30°C for 2 days (yeast) or 4 days (filamentous fungi), read-out: MICs, Candida paratropicalis A25825
[17] = A25812, YM agar (pH 7.0, Difco), 30°C for 2 days (yeast) or 4 days (filamentous fungi), read-out: MICs, Candida tropicalis A25812
[18] = A15053, YM agar (pH 7.0, Difco), 30°C for 2 days (yeast) or 4 days (filamentous fungi), read-out: MICs, Cryptococcus neoformans A15053
[19] = A26771, YM agar (pH 7.0, Difco), 30°C for 2 days (yeast) or 4 days (filamentous fungi), read-out: MICs, Trichophyton mentagrophytes A26771

| SMILES | MIC (Candida albicans A25578; [14]) | MIC (Candida albicans A9540 [1]; [15]) | MIC [2, 16] | MIC [3] | MIC [4] | MIC [5, 17] | MIC [6, 18] | MIC [7] | MIC [8] | MIC [9] | MIC [10, 19] | MIC [11] | solubility [13] | also measured |
| --- | --- | --- | --- | --- | --- | --- | --- | --- | --- | --- | --- | --- | --- | --- |
| COc1cc(O)c2c(c1)C(=O)c1c(cc3c(c1O)-c1c(cc(C)c(C(=O)N[C@H](C)C(=O)O)c1O)[C@H](O[C@@H]1O[C@H](C)[C@H](N(C)CC(=O)O)[C@H](O)[C@H]1O)[C@H]3O)C2=O [Ex. 4, N-carboxymethyl pradimicin B] | 1.6 µg/mL (≈ 2.09 µM) | 3.2 µg/mL (≈ 4.17 µM) | 3.2 µg/mL (≈ 4.17 µM) | 1.6 µg/mL (≈ 2.09 µM) | 1.6 µg/mL (≈ 2.09 µM) | 3.2 µg/mL (≈ 4.17 µM) | 1.6 µg/mL (≈ 2.09 µM) | 6.3 µg/mL (≈ 8.22 µM) | 25 µg/mL (≈ 32.6 µM) | 0.8 µg/mL (≈ 1.04 µM) | 12.5 µg/mL (≈ 16.3 µM) | 12.5 µg/mL (≈ 16.3 µM) | > 10000 µg/mL | PD₅₀ (Candida albicans A9540 [12]; mouse, in vivo): >50** mg/kg |
| COc1cc(O)c2c(c1)C(=O)c1c(cc3c(c1O)-c1c(cc(C)c(C(=O)N[C@H](C)C(=O)O)c1O)[C@H](O[C@@H]1O[C@H](C)[C@H](N(C)CC(N)=O)[C@H](O)[C@H]1O)[C@H]3O)C2=O [Ex. 5, N-(carbamoylmethyl) pradimicin B] | 0.8 µg/mL (≈ 1.04 µM) | 3.2 µg/mL (≈ 4.18 µM) | 3.2 µg/mL (≈ 4.18 µM) | 0.8 µg/mL (≈ 1.04 µM) | 0.8 µg/mL (≈ 1.04 µM) | 3.2 µg/mL (≈ 4.18 µM) | 0.8 µg/mL (≈ 1.04 µM) | 1.6 µg/mL (≈ 2.09 µM) | 3.2 µg/mL (≈ 4.18 µM) | 0.8 µg/mL (≈ 1.04 µM) | 1.6 µg/mL (≈ 2.09 µM) | 1.6 µg/mL (≈ 2.09 µM) | > 4000 µg/mL | PD₅₀ (Candida albicans A9540 [12]; Part B: route IV, at 1 and 3.5 hrs after infection and twice on the following day, 21 days after fungal challenge, method of Spearman-Karber, male ICR mice): >50** mg/kg |
| COc1cc(O)c2c(c1)C(=O)c1c(cc3c(c1O)-c1c(cc(C)c(C(=O)N[C@H](C)C(=O)O)c1O)[C@H](O[C@@H]1O[C@H](C)[C@H](N(C)C(=O)CN)[C@H](O)[C@H]1O)[C@H]3O)C2=O [Ex. 14, N-(glycyl) pradimicin B formate salt] | 3.2 µg/mL | 3.2 µg/mL | 3.2 µg/mL | 1.6 µg/mL | 3.2 µg/mL | 3.2 µg/mL | 1.6 µg/mL |  |  | 1.6 µg/mL |  |  |  | MIC (M. gypseum A22810): 3.2 µg/mL; MIC (T. rubrum A24195): 1.6 µg/mL; MIC (T. mentagrophytes A22838): 1.6 µg/mL |
| CNC(=O)N(C)[C@@H]1[C@H](O)[C@@H](O)[C@H](O[C@H]2c3cc(C)c(C(=O)N[C@H](C)C(=O)O)c(O)c3-c3c(cc4c(c3O)C(=O)c3cc(OC)cc(O)c3C4=O)[C@@H]2O)O[C@@H]1C [Ex. 18, N-(N-methylcarbamoyl) pradimicin B] |  |  |  | 3.2 µg/mL (≈ 4.18 µM) |  |  |  |  |  |  |  | > 50 µg/mL | 4000 µg/mL (≈ 5220 µM) | MIC (Candida albicans A25578; A25578, pH 7, read-out: MICs, Candida albicans A25578): 25 µg/mL (≈ 32.6 µM); MIC (Candida albicans A9540 [1]; A9540, pH 7, read-out: MICs, Candida albicans A9540): 25 µg/mL (≈ 32.6 µM); MIC ([2]; pH 7, read-out: MICs, Candida paratropicalis A25825): 25 µg/mL (≈ 32.6 µM); MIC ([5]; A25812, pH 7, read-out: MICs, Candida tropicalis A25812): 25 µg/mL (≈ 32.6 µM); MIC ([6]; A15053, pH 7, read-out: MICs, Cryptococcus neoformans A15053): > 50 µg/mL; MIC ([10]; A26771, pH 7, read-out: MICs, Trichophyton mentagrophytes A26771): > 50 µg/mL; MIC (M. gypseum A26835): > 50 µg/mL; MIC (M. canis A26834): > 50 µg/mL |
